Reference: paper PMC7562955 (Nature Communications, 2020)

Key:
[1] = target: T1, TLR7 (Homo sapiens, UniProt Q9NYK1); test: Human TLR7 reporter gene agonistic activity assay; type: cell-based; parameters: host or cells: HEK293 (TLR7/NF-κB/SEAPorter)
T1 sequence (Q9NYK1 27-1049): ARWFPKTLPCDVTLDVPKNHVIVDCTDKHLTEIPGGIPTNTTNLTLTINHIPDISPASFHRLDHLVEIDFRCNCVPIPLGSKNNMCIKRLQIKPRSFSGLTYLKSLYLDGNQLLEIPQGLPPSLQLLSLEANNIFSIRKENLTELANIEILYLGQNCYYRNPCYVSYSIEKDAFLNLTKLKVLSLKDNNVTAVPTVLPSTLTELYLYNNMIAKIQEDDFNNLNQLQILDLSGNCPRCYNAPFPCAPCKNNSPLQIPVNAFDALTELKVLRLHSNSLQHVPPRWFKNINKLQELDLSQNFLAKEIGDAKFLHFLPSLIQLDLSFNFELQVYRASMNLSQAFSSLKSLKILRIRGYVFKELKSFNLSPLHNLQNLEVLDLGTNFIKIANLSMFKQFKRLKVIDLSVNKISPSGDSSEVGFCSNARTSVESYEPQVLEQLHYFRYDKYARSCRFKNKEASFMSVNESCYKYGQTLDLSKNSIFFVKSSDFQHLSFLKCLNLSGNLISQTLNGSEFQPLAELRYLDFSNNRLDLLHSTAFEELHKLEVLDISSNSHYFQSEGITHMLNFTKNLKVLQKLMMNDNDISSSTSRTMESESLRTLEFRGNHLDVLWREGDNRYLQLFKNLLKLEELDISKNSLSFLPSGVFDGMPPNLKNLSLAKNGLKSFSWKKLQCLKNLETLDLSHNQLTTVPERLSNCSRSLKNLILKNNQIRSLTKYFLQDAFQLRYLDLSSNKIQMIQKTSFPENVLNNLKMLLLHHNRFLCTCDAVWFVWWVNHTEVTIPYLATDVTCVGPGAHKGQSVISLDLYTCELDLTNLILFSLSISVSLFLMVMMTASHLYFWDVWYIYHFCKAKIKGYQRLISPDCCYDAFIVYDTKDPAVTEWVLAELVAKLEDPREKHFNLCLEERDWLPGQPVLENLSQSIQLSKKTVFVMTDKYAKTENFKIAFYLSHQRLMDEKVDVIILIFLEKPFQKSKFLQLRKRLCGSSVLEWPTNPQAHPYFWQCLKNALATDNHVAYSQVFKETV
Procedure: Compounds were dissolved in dimethyl sulfoxide. Before stimulation with compound, Human TLR7 reporter cell line (Novus Biological) was seeded in 96-well microtiter plate (AGC techno glass) at 5 × 10^4 cells/well in DMEM (GIBCO) with 10% fetal bovine serum (GIBCO), and 10 ug/ml Blastcidin S HCl (GIBCO) and incubated at 37 °C in 5% CO2. The plates were incubated over-night and then stimulated with various concentrations of compound and R848. The plates were then incubated an additional 20 ± 1 h at 37 °C in 5% CO2 and then the secreted embryonic alkaline phosphatase (SEAP) activity was measured as activation of human TLR7. The SEAP activity was evaluated as follows: pNPP (Invitrogen, USA) was added to the incubated sample (50 μl/well); after 15 min, 4 M sodium hydroxide solution (nacalai tesque, Japan) was added thereto (50 μl/well) to quench the reaction; and the absorbance of each sample was measured at 405 nm with microplate reader SpectraMax M4 (Molecular Devices, USA).

[2] = system: TLR7; test: Glutaraldehyde crosslinking assay of ligand-induced TLR7 dimerization; type: biochemical, Monkey (Macaca mulatta)
Procedure: The recombinant TLR7 proteins expressed in Drosophila S2 cells (Thermo Fisher Scientific) using Monkey (Macaca mulatta) TLR7 extracellular domain expression construct with N167Q, N399Q, N488Q and N799Q mutations and cleavable Z-loop and C-terminal protein A tag were prepared and were stored in a buffer containing 10 mM Tris-HCl pH 7.5 and 150 mM NaCl at concentrations of 10–15 mg ml^−1. Briefly, the purification steps included IgG affinity purification, the Z-loop and the protein A tag cleavage, and gel-filtration chromatography. Glycan-trimmed TLR7 proteins, expressed in the presence of 1.5 mg l^−1 kifunensine (Glycosyn) and treated by Endo Hf (New England Biolabs) were used for crystallization. Glycan-untrimmed proteins were used in ITC analysis, crosslinking assay, negative-staining EM and cryo-EM (200 kV microscopes) analyses. Glycan-trimmed TLR7 proteins with partially-uncleaved protein A tag were used for cryo-EM analysis using Tatan Krios (Supplementary Fig. 11).
For glutaraldehyde crosslinking assay (Fig. 2b), proteins were buffer exchanged into a buffer containing 10 mM HEPES-NaOH, pH 8.0, 150 mM NaCl and were concentrated to ~13 mg/ml using Amicon Ultra devices (Merck). Protein concentrations were adjusted to 25 µM using buffers containing 10 mM HEPES-NaOH, pH 7.0, 150 mM NaCl (for neutral condition) or 50 mM citrate-NaOH pH 5.0, 150 mM NaCl (for acidic condition). Cpd-3, Cpd-6 or Cpd-7 were added to final concentrations of 100 or 1000 µM. The reactions were started by adding glutaraldehyde (Wako) to a final concentration of 5 mM (for neutral condition) or 20 mM (for acidic condition), incubated at ambient temperature for 25 min and quenched by adding Tris-HCl pH 7.5 to a final concentration of 100 mM. Crosslinked samples were analyzed by non-reducing SDS-PAGE. Quantitative analysis of the SDS-PAGE gel image was performed with Image-J.

[3] = pH 5.0, ligand + (100 or 1000 µM used)
[4] = pH 5.0, ligand ++ (100 or 1000 µM used)
[5] = pH 7.0, ligand + (100 or 1000 µM used)
[6] = pH 7.0, ligand ++ (100 or 1000 µM used)

| SMILES | activation of human TLR7, reporter signal ([1]; compound 0.001 nM (as headed)) | activation of human TLR7, reporter signal ([1]; compound 0.003 nM (as headed)) | activation of human TLR7, reporter signal ([1]; compound 0.01 nM (as headed)) | activation of human TLR7, reporter signal ([1]; compound 0.03 nM (as headed)) | activation of human TLR7, reporter signal ([1]; compound 0.1 nM (as headed)) | activation of human TLR7, reporter signal ([1]; compound 0.3 nM (as headed)) | activation of human TLR7, reporter signal ([1]; compound 1 nM (as headed)) | activation of human TLR7, reporter signal ([1]; compound 3 nM (as headed)) | activation of human TLR7, reporter signal ([1]; compound 10 nM (as headed)) | activation of human TLR7, reporter signal ([1]; compound 30 nM (as headed)) | activation of human TLR7, reporter signal ([1]; compound 100 nM (as headed)) | ligand-induced TLR7 dimerization ([2]; neutral or acidic pH) | Band intensity Dimer [2, 3] | Band intensity Monomer [2, 3] | Band intensity Dimer [2, 4] | Band intensity Monomer [2, 4] | Band intensity Dimer [2, 5] | Band intensity Monomer [2, 5] | Band intensity Dimer [2, 6] | Band intensity Monomer [2, 6] |
| --- | --- | --- | --- | --- | --- | --- | --- | --- | --- | --- | --- | --- | --- | --- | --- | --- | --- | --- | --- | --- |
| CCOCc1nc2c(N)nc3ccccc3c2n1CC(C)(C)O [R848, reference compound] | -0.0355 | -0.0898 | -0.0215 | 0.2447 | 1.76 | 3.124 | 3.25 | 3.172 | 3.25 | 3.234 | 3.25 |  |  |  |  |  |  |  |  |  |
| COCCOc1nc(N)c2[nH]c(=O)n(Cc3cccnc3)c2n1 [Cpd-3] |  |  |  |  |  |  |  |  |  |  |  | induced almost complete dimerization under both neutral and acidic conditions | 16031.2 | 5165.8 | 16425.6 | 4634.68 | 17958.5 | 7371.24 | 17537.6 | 7105.24 |
